Experimental data: patent publication US6410545B1, “Lipid lowering quinazoline dietary supplement composition” (Parker Hughes Institute, priority 1998, dated 2002)

Tests used:
Type in all cases: in vivo
apo e−/− mice [1] = experiment: Serum lipoprotein profile (VLDL-C, HDL-C) by FPLC in apo e−/− mice; conditions: for HDL-C / VLDL-C: apo e−/− mice, one week
Experimental: Three- to four-week old apolipoprotein E deficient (apo E^−/−) mice were the progeny of breeding pairs of apo E knockout (apo EKO) mice obtained from Jackson Labs. (Bar Harbor, Me., USA). Mice were fed either regular rodent chow (5% fat and 0% cholesterol) (Teklad-LM 485, Harlan Teklad, Madison, Wis., USA), the Paigen's cocoa butter diet, or the Western diet (21.22% fat and 0.2% cholesterol) (Harlan Teklad, Madison, Wis., USA) for two weeks prior to treatment.
(§1) Animals were treated with test compounds by intraperitoneal injection daily for 7 days. A range of doses was administered. Control animals received vehicle alone. The effect of quinazoline derivatives on total cholesterol, LDL, HDL, liver enzymes, and glucose was analyzed. The mice tissues were also examined histologically.
(§2) Serum cholesterol profiles were examined by Fast Protein Liquid Chromatography (FPLC) using 100 μl of serum per run. The serum was passed over two Superose™ 6 HR 10/30 connected in tandem equilibrated in phosphate buffered saline (PBS), using the FPLC system from Pharmacia Biotech (Piscataway, N.J., USA) consisting of a controller LCC-501 plus connected to a UV detector (UV-MII), two P500 pumps, and a Frac-100 fraction collector. The FPLC was remotely controlled and operated by the FPLC director program operated on an IBM computer. The system was operated at a flow rate of 0.5 ml/minute and fractions were collected at 0.5 ml/fraction. Cholesterol concentration of each fraction was determined as described above and plotted against the fraction numbers to obtain the serum cholesterol profile.
(§3) To determine the serum concentrations of LDL/β-VLDL and HDL, the sums of the LDL/β-VLDL peak (fractions 29-35) and the HDL peak (fractions 53-63) were divided by 0.1. To obtain the IC50 and the minimum β-VLDL and HDL concentrations, the concentrations of β-VLDL and HDL were plotted against the dosage. Best fitted exponential decay curves were obtained using the equation: Concentration of HDL or LDL/β-VLDL=Aexp(−BX)+E, where A+E equals the concentration of HDL or LDL/β-VLDL at the dosage of 0 μg/day and E equals the mathematical minimum concentration of HDL or β-VLDL, and B equals 0.69/IC50. Best fitted curves were obtained using the Graphpad Inplot program, Graphpad Software, San Diego, Calif., USA.
On regular rodent chow, the serum total cholesterol level of apo e^−/− mice was 836±57 mg/dL (n=47). After one week therapy with 8 mg/kg/day WHI-P164 (n=12), the mean serum total cholesterol level was reduced to 551±29 mg/dL (p=0.02).
When challenged with a cholesterol-rich diet, these animals developed frank hypercholesterolemia due to delayed clearance of intestinal chylomicrons which shuttle the dietary cholesterol from the intestine to the liver. In the present study, all of the 46 ApoE-deficient mice that were fed Western diet (14) became severely hypercholesterolemic with a mean serum total cholesterol level of 1491±59 mg/dL. One week WHI-P164 therapy reduced the mean serum total cholesterol level of hypercholesterolemic apo e^−/− mice to 1194±84 mg/dL (p=O.006) at a dose level of 8 mg/kg/day (n=19) and to 876±57 mg/dL (p<0.0001) at a dose level of 40 mg/kg/day (n=17) (Table 3).

apo e−/− mice [2] = experiment: Blood chemistry and histopathology of treated apo e−/− mice; conditions: 8 mg/kg/day or 40 mg/kg/day
Experimental: as §1
Serum levels alanine aminotransferase (ALT), alkaline phosphatase (ALP), lactate dehydrogenase (LDH), blood urea nitrogen (BUN), creatinine, creatinine phosphokinase (CPK), and glucose were determined by using a Synchron CX5 Clinical System (Beckman Instruments, Inc., Fullerton, Calif.) following manufacturer's instructions. For the glucose tolerance test, blood glucose levels were determined using the portable One Touch Profile glucose meter (Lifescan, Milpitas, Calif., USA).
At the end of the experiment, the animals were sacrificed and the harvested tissues were fixed in 10% phosphate buffered formalin overnight, embedded, sectioned, and stained by hematoxylin and eosin (H&E). The stained sections were examined for pathological changes. For Oil Red O staining, the liver was excised and snap frozen in liquid nitrogen. Five micrometer thick sections were obtained using the LeicaCM1800 cryostat (Heerbrugg, Switzerland), stained in 0.5% Oil Red O in propylene glycol for 1 hour, destained in 85% propylene glycol for 1 minute, rinsed twice in distilled water, counterstained in Mayer's hematoxylin for a few seconds, rinsed twice in distilled water, and mounted in Crystalmount (Biomedia Corp., Foster City, Calif.). The Oil Red O stainable material at 400 X magnification was quantitated using the ImagePro plus program (Media Cybernetics, Silver Spring, Md., USA) in conjunction with a 3CCD camera (DAGE-MTI Inc., Michigan City, USA).

[3] = tested on: hypercholesterolemic C57B⅙ mice; experiment: Serum lipoprotein profile (VLDL-C, HDL-C) by FPLC in C57B⅙ mice on cocoa butter diet; conditions: for HDL-C / VLDL-C: C57B1/6, cocoa butter diet
Experimental: Three- to four-week old C57B⅙ male mice (Taconic, Germantown, N.Y., USA) were kept in micro-isolator cages on a 12-hour day/night cycle and fed the Paigen's cocoa butter diet (15.8% fat, 1.25% cholesterol, and 0.5% sodium cholate) (Harlan Teklad, Madison, Wis., USA) for two weeks prior to initiation of lipid lowering therapy. Paigen's diet is described in Nishina et.al., 1993, J. Lipid Res. 34: 1413-1422.
as §1, §2, §3
As shown by their serum lipoprotein profiles (FIG. 1), hypercholesterolemic C57B⅙ mice preferentially accumulated cholesterol rich VLDL (171±19 mg/dL, n=4 versus 7±4 mg/dL, n=3, p=0.0008) but no changes in HDL cholesterol levels (90±9 mg/dL, n=4 versus 86±13 mg/dL, n=3, p=0.8) (Table 2). […] In WHI-P164 treated mice, serum VLDL-C decreased immediately from 171±19 mg/dL (n=4), to 99±13 mg/dL (n=4) at the 1.6 mg/kg/day dose level (P=0.02) and further decreased to 78±15 mg/dL (n=4) at the 16 mg/kg/day dose level (p=0.1) (Table 1). […] Thus, WHI-P164 was only able to reduce VLDL-C by […].

## COc1cc2ncnc(C(=O)c3cccc(Br)c3)c2cc1OC [WHI-P164, 4-(3′-bromobenzoyl)-6,7-dimethoxyquinazoline]
Apo e−/− mice [1]; Western diet, 40 mg/kg/day
  HDL-C: 90 ± 4 mg/dL
  VLDL-C: 587 ± 4 mg/dL
Apo e−/− mice [1]; rodent chow, 8 mg/kg/day
  HDL-C: 50 ± 10 mg/dL
  VLDL-C: 190 ± 13 mg/dL
Apo e−/− mice [1]; hypercholesterolemic apo e−/− mice
  Reduction of β-VLDL/LDL-cholesterol levels: 63%
Apo e−/− mice [2]
  Clinical or laboratory signs of toxicity: not associated with any obvious clinical or laboratory signs of toxicity
  Histopathologic examination of tissues: did not reveal any drug related toxic lesions
  Liver enzymes (ALT, AST, ALP, LDH), CPK levels, and BUN/Creatinine: remained within normal limits
[3]; dose 1.6 mg/kg
  HDL-C: 93 ± 8 mg/dL
[3]; dose 1.6 mg/kg/day
  VLDL-C: 99 ± 13 mg/dL
[3]; dose 4.0 mg/kg
  HDL-C: 86 ± 5 mg/dL
  VLDL-C: 106 ± 15 mg/dL
[3]; dose 8.0 mg/kg
  HDL-C: 81 ± 9 mg/dL
  VLDL-C: 101 ± 7 mg/dL
[3]; dose 16.0 mg/kg
  HDL-C: 74 ± 10 mg/dL
[3]; dose 16 mg/kg/day
  VLDL-C: 78 ± 15 mg/dL
[3]; C57B⅙ mice, cocoa butter diet
  Effect on serum HDL-C levels: did not significantly affect
[3]; C57B⅙ mice, cocoa butter diet, fitted exponential decay curve
  Calculated effective dose (ED50) for VLDL-C lowering: 0.4 mg/kg/day
[3]; C57B⅙ mice, cocoa butter diet, mathematical minimum of fitted curve
  Minimum serum VLDL-C level: 94 ± 9 mg/dL
[3]; C57B⅙ mice, cocoa butter diet, maximal reduction
  Reduction of VLDL-C: 45%
[3]; hypercholesterolemic C57B⅙ mice on a high calorie diet
  Reduction of LDL-C: 45%
